{
  "source": "paper PMC4398456",
  "about": "“Evidence for a Novel Mechanism of Antimicrobial Action of a Cyclic R-,W-Rich Hexapeptide” (PLoS ONE, 2015)",
  "key": {"B. subtilis DSM 347": {"tested_on": "B. subtilis DSM 347", "conditions": "microdilution; reported before; cited from earlier work"}, "B. subtilis 168": {"tested_on": "B. subtilis 168", "test": "Cardiolipin staining with NAO, fluorescence microscopy", "assay_type": "cell-based", "conditions": "500 nM NAO 60 min, then 12 μM peptide 30 min, room temperature; 520 and 640 nm", "description": "Cells were first incubated with the dye for 60 minutes in the dark, at room temperature at 600 rpm (ensuring sufficient aeration). Afterwards, cWFW was added at a final concentration of 12 μM and co-incubated with NAO for another 30 minutes under the same conditions.\nSpecific staining of CL with NAO has been shown before and is neither influenced by fixation nor depolarisation of the membrane. The emission shift from green to red fluorescence (513 nm to 640 nm) was reported to be exclusive for binding to CL and is caused by narrow stacking of dye molecules. Images were captured using a Zeiss Axiovert M200 inverted fluorescence microscope and an LSM 510 ConfoCor2 (Germany) with plan-apochromat 63, 100×/1.4 objective, respectively, and processed with ImageJ."}, "[1]": {"test": "Calcein dye release from liposomes", "assay_type": "biochemical", "conditions": "10 μM peptide, 1 min, Tris buffer pH 7.4, room temperature; for permeabilisation (calcein dye release): fluorescence; for dye release: cardiolipin 40 mol%", "from_the_text": "Large unilamellar vesicles (LUVs) were used for isothermal titration calorimetry studies and prepared as described before. […] As CL potentially carries two negative charges it was applied at half POPG concentrations to give liposomes with identical surface charge. Subsequently, chloroform was evaporated under nitrogen stream and obtained lipid films were dried under high vacuum for several hours and rehydrated in phosphate buffer by thorough vortexing. The solution was heated 2–3 times in a water bath to 40°C to facilitate resuspension. POPE-LUVs were obtained after 35-fold extrusion through two stacked polycarbonate membranes (100 nm pore size) using a mini extruder (Avestin, Switzerland). The procedure gives vesicles with a diameter of 90–120 nm as determined with dynamic light scattering (DLS) performed on a Zetasizer Nano ZS ZEN 3600 (Malvern Instruments, UK). Large liposomes for dye release experiments were prepared with a solution of 80 mM calcein in 10 mM Tris buffer, 0.1 mM EDTA, pH 7.4 and treated to remove non-incorporated dye as described before.\nPeptide-induced calcein release was monitored fluorimetrically by measuring the time-dependent decrease in self-quenching (ex 490 nm, em 514 nm) at room temperature on a LS 50B spectrofluorimeter (Perkin Elmer, Germany) as described before. Lipid concentration was 25 μM in Tris buffer (10 mM Tris, 154 mM NaCl, pH 7.4) and peptide concentrations ranged from 1 to 200 μM. The fluorescence intensity corresponding to 100% release was determined by addition of a 10% Triton X-100 solution. In this study, calcein release was analysed after 1 min of incubation with 10 μM peptide and 25 μM liposomal suspensions."}, "ITC binding to LUVs": {"test": "ITC binding to LUVs", "design": "species or system E. coli", "conditions": "25°C", "description": "The lipid concentration of E. coli extract preparations was determined from dried lipid films by gravimetric analysis. Liposomes were prepared after resuspension in phosphate buffer and sonication on ice for 25 min under nitrogen stream using a Labsonic L ultrasonicator (B. Braun Biotech, Germany) followed by centrifugation for 5 min at 11000 × g (Eppendorf MiniSpin, Germany) to remove potential titanium debris. The diameter of LUVs from E. coli extract was 90 nm. According to manufacturer's data, E. coli polar lipid extract is a three component mixture containing 71.4% PE-, 23.4% PG-lipids and 5.2% CL (mol%).\nHigh-sensitivity isothermal titration calorimetry (ITC) experiments to characterise peptide interaction with model membranes were performed at 25°C on a VP-ITC instrument (MicroCall, Malvern Instruments, UK). Binding data were generated as described before. Prior to use, solutions were gently degassed under vacuum. 10 μl aliquots of 5 to 10 mM lipid vesicles were titrated into a 40 μM peptide solution inside the calorimeter cell (1.4 ml) while the reaction mixture was continuously stirred at 307 rpm. Time intervals between injections were adjusted to 10 min which was sufficient for the heat signal to return to baseline level. Automated baseline adjustment and peak integration were accomplished with the public-domain software NITPIC [32].\nBinding parameters, such as hydrophobic partition coefficient (K 0) and enthalpy of binding (ΔH°), were derived by applying a surface partition equilibrium under the specific condition that peptide adsorption is linearly related to the peptide concentration immediately above the membrane surface. This concentration in close proximity to the membrane is determined by electrostatic interactions and depends on the bulk concentration of peptide, peptide charge and membrane surface potential. Negatively charged lipid layers attract cationic peptides. Consequently, the membrane surface concentration is enhanced compared to that in the bulk solution. After binding of cationic peptides to an electrically neutral membrane it becomes positively charged which results in a repulsion of further peptides from the membrane surface. Using the Gouy—Chapman theory which accounts for electrostatic effects, it is possible to calculate the peptide surface concentration and to determine the partition coefficient K 0 [33]. Nonlinear least-squares data fitting was performed with Excel 2010 (Microsoft) using the Solver add-in (Frontline Systems). The Gibbs free energy was calculated according to ΔG° = -RT ln(55.5 M × K 0), where 55.5 M is the molar concentration of water in the aqueous phase. Finally, the entropic contribution to membrane partitioning,-TΔS°, was derived from the Gibbs-Helmholtz equation, ΔG° = ΔH°-TΔS°."}, "[2]": {"tested_on": "B. subtilis L-170 (cell wall-deficient L-form)", "assay_type": "cell-based", "conditions": "microdilution, 96-well, 0.05 to 100 μM peptide, BHI with supplements, OD550 0.4, 18 hours, 37°C; triplicates, at least three independent experiments", "description": "(§1) For L-form bacteria BHI medium was supplemented with […] penicillin and additional 50 mg/ml sucrose and 30 mg/ml yeast extract in the case of B. subtilis L-170. L-form cells were cultivated as described above using flat bottom glass flasks and OD was measured at 550 nm (OD550 = 1 corresponds to 3.92 × 10^8 CFU/ml L-170 and 9.75 × 10^8 CFU/ml L-WF+).\n(§2) To determine the minimal inhibitory peptide concentration (MIC) of bacterial growth we applied a microdilution technique as described previously. Briefly, the antimicrobial activity was tested against L-form bacteria in 96-well plates with final peptide concentrations ranging from 0.05 to 100 μM. Cultures were diluted to OD550 0.4 in BHI containing strain-specific supplements. Cells were grown for 18 hours at 37°C and 180 rpm. Peptide activity was tested in triplicates in at least three independent experiments."}, "[3]": {"tested_on": "E. coli L-WF+ (cell wall-deficient L-form, W1655 F+)", "assay_type": "cell-based", "conditions": "microdilution, 96-well, 0.05 to 100 μM peptide, BHI with supplements, OD550 0.4, 18 hours, 37°C; triplicates, at least three independent experiments", "description": "as §1, §2"}},
  "note": "Residues, ends and D or L forms follow the SMILES beside them.",
  "data": [
    {"molecule": "N=C(N)NCCC[C@@H]1NC(=O)[C@H](CCCNC(=N)N)NC(=O)[C@H](Cc2c[nH]c3ccccc23)NC(=O)[C@H](Cc2ccccc2)NC(=O)[C@H](Cc2c[nH]c3ccccc23)NC(=O)[C@H](CCCNC(=N)N)NC1=O", "note": "[cWFW] (cyclo(FWRRRW))", "values": [
      {"measurement": "MIC B. subtilis DSM 347", "setting": "B. subtilis DSM 347", "result": 3, "unit": "µM"},
      {"measurement": "effect on NAO fluorescence (cardiolipin staining)", "setting": "B. subtilis 168", "result": "significant decrease in NAO fluorescence intensity at both wavelengths"},
      {"measurement": "peptide-induced dye release", "setting": "[1]; CL content of 12.5% (matrix lipid not restated, follows sentence on POPE systems), 25 μM lipid", "result": 18, "unit": "%"},
      {"measurement": "permeabilisation (calcein dye release)", "setting": "[1]; PC/7.5% CL, 25 μM lipid", "result": 15, "unit": "%"},
      {"measurement": "permeabilisation (calcein dye release)", "setting": "[1]; PC/25% PG, 25 μM lipid", "result": 8, "unit": "%"},
      {"measurement": "permeabilisation (calcein dye release)", "setting": "[1]; PE/7.5% CL, 25 μM lipid", "result": 8, "unit": "%"},
      {"measurement": "permeabilisation (calcein dye release)", "setting": "[1]; PE/25%PG, 25 μM lipid (peptide/lipid 1/2.5)", "result": 2, "unit": "%"},
      {"measurement": "dye release", "setting": "[1]; POPC-based LUVs, 25 μM lipid", "result": "more than 70%"},
      {"measurement": "dye release", "setting": "[1]; POPE-based LUVs, 25 μM lipid", "result": "more than 70%"},
      {"measurement": "ΔH°", "setting": "ITC binding to LUVs; 10 mM LUVs into 40 μM peptide, γ = 0.6", "result": -3.99, "unit": "kcal/mol"},
      {"measurement": "K 0 (hydrophobic partition coefficient)", "setting": "ITC binding to LUVs; 10 mM LUVs titrated into 40 μM peptide, phosphate buffer pH 7.4, surface partition model, γ = 0.6", "result": "8.8e+06", "unit": "M⁻¹"},
      {"measurement": "ΔG°", "setting": "ITC binding to LUVs; calculated as -RT ln(55.5 M × K 0), LUVs of E. coli extract", "result": -11.9, "unit": "kcal/mol"},
      {"measurement": "-TΔS°", "setting": "ITC binding to LUVs; from Gibbs-Helmholtz equation, LUVs of E. coli extract", "result": -7.86, "unit": "kcal/mol"},
      {"measurement": "MIC B. subtilis L-170", "setting": "[2]", "result": 6, "unit": "µM"},
      {"measurement": "MIC E. coli L-WF+", "setting": "[3]", "result": 12, "unit": "µM"}
    ]}
  ]
}
